Data published in patent publication US6423689B1, “Peptidyl calcium channel blockers” (Warner-Lambert Company, priority 1997, dated 2002).

Tests used:
[1] = tested on: K+ channels in superior cervical ganglion (SCG) neurons; assay: Whole-cell voltage clamp, K+ current in SCG neurons; type: cell-based, rat; settings: for IC50: read-out: Inhibition of K+ Current IC50
Method: (§1) Electrophysiological techniques were used to measure the effects of experimental compounds on voltage-gated Ca^2+, Na^+ and K^+ channels. […] Sodium and potassium channel currents were measured from acutely dissociated SCG neurons.
(§2) Dissociation of the neurons from the ganglia was accomplished using a 30 to 45 minute treatment in 0.25% trypsin, similar to methods outlined in Higgins, et al. [see Higgins D., et al. “Tissue culture of mammalian autonomic neurons.” In Banker G. and Goslin K. (Eds), Culturing Nerve Cells, Cambridge, Mass., MIT Press (1991)].
(§3) Ca^2+, Na^+ and K^+ channel currents in SCG neurons were measured using conventional single electrode whole-cell voltage-clamp techniques, outlined in Hamill, et al., (see Hamill O.P., et al. “Improved patch-clamp techniques for high resolution current recordings from cells and cell-free membrane patches”. Pflugers Arch. 1981;391:85-100) For Ca^2+ channel experiments, the external bathing solution contained tetraethylammonium chloride (100 mM), choline chloride (52 mM), NaCl (15 mM), HEPES (10 mM), glucose (5.6 mM), CaCl2 (2 mM), and MgCl2 (0.8 mM) pH 7.35 with KOH; with the internal pipette solution containing cesium methane sulfonate (140 mM), EGTA (10 mM), and HEPES (10 mM), supplemented with 5 mM Mg^2+ -ATP on the day of the experiment, pH 7.4 with CsOH. For Na^+ and K^+ channel experiments, the external bathing solution contained NaCl (150 mM), KCl (5 mM), MgCl2 (1.1 mM), CaCl2 (2.6 mM), Na-HEPES (10 mM), and glucose (10 mM), pH 7.4; with the internal pipette solution containing KCl (80 mM), K-gluconate (50 mM), HEPES (10 mM), and EGTA (10 mM), pH 7.4 with KOH. Experimental compounds were diluted into the external solution and applied to the soma of cells by local perfusion from large diameter (20-50 μm) glass micropipettes or from a U-tube applicator.
(§4) For Na^+ and K^+ channel currents, following the determination of the I/V relationship for each cell in control solution, currents were evoked from a holding potential between −65 and −55 mV by stepping every 10 sec to a test potential of either 0 mV for Na^+ or +50 mV for K^+ current for a duration of 35 msec. Peak inward current was measured for Na^+ and sustained current for K^+ channel currents. […] Test compounds were applied until steady-state block was achieved. Data were expressed as percent inhibition of control amplitudes for Na^+ and K^+ channel currents.

[2] = molecular target: T1, N-type Ca2+ channels in IMR-32 cells (Homo sapiens, UniProt Q00975); assay: Inhibition of N-type calcium flux in IMR-32 cells (Indo-1 fluorescence, nitrendipine present); type: cell-based; settings: for IC50: IMR-32 cells, 5 μM nitrendipine, K+ depolarization; for inhibition at 1 µM / inhibition at 10 µM: IMR-32
T1 construct: host or cells: IMR-32 cells, differentiated with dibutyryl cAMP and bromodeoxyuridine
Procedure, shortened: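 Differentiated IMR-32 cells (7–13 days) were loaded with 5 μM Indo-1 AM, preincubated with compound for 10 min at 30° C, and depolarized with KCl/CaCl2 stimulation solution, with 5 μM nitrendipine blocking L-channels. Peak-minus-basal 400/490 nm emission ratio was plotted against drug concentration, and IC50 came from four-parameter logistic fits.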

[3] = molecular target: T2, N-type Ca2+ channels in superior cervical ganglion (SCG) neurons (Rattus norvegicus, UniProt Q02294); assay: Whole-cell voltage clamp, N-type Ca2+ current in SCG neurons; type: cell-based; settings: for IC50: read-out: Inhibition of N-type Ca2+ Current IC50
T2 construct: from tissue
T2 sequence (Q02294 whole entry): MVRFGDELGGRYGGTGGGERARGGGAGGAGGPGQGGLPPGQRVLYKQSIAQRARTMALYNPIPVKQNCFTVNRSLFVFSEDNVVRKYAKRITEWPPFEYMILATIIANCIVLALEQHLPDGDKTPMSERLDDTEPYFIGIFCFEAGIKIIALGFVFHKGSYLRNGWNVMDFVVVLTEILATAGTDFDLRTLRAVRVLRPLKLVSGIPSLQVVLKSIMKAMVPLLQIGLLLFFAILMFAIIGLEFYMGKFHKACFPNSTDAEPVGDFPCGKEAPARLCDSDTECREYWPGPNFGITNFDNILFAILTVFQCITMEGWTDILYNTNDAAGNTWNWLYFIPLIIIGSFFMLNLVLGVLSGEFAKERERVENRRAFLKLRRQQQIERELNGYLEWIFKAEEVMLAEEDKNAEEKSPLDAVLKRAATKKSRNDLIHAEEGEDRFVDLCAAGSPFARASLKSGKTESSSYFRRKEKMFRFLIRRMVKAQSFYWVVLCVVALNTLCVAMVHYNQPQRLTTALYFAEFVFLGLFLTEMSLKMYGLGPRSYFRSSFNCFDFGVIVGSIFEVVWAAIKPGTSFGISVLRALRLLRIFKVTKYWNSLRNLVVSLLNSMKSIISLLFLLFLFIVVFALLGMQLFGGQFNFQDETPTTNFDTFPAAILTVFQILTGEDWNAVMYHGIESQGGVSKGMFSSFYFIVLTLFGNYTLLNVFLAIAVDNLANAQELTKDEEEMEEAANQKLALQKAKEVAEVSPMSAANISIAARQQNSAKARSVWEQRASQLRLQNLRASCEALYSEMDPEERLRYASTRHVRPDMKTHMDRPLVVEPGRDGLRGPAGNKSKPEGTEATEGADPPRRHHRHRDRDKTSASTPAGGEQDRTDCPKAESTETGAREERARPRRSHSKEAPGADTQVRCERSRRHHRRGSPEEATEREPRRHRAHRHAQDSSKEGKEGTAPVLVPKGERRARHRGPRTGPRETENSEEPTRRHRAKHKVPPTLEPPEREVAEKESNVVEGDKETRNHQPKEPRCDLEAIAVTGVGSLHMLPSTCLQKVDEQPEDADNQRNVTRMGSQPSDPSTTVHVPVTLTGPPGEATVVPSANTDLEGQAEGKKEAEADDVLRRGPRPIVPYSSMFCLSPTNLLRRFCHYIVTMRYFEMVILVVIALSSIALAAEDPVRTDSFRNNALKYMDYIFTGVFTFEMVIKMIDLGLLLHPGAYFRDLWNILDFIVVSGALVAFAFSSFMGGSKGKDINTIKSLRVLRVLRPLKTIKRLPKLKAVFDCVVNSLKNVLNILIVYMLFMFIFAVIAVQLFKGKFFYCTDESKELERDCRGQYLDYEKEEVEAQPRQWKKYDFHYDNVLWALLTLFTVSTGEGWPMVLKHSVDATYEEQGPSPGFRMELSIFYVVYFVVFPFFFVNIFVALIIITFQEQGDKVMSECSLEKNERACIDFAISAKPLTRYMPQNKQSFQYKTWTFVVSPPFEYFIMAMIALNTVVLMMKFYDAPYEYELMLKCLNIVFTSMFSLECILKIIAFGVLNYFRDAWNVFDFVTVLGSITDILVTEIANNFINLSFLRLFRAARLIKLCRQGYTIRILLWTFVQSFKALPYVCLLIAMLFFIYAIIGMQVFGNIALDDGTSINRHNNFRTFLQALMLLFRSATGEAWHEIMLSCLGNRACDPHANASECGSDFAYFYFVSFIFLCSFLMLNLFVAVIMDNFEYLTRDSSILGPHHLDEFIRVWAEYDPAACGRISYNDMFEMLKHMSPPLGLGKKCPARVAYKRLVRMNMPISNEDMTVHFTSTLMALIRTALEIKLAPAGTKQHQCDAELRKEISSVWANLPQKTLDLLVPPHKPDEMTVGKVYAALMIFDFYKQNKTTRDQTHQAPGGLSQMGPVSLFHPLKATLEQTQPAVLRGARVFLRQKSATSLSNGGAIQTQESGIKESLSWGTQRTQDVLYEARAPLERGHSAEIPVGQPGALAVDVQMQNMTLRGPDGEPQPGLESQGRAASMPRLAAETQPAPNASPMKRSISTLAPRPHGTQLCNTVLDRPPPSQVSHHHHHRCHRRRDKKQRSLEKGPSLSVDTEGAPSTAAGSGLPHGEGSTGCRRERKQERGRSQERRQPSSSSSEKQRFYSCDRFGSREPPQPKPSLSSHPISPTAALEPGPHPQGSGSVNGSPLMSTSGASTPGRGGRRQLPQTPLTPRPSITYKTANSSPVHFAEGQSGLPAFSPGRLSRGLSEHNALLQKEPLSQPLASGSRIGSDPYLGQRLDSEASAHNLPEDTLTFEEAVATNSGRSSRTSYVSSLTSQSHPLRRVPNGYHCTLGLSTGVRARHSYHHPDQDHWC
T2 sequence (P54290 25-944 partner limits assumed): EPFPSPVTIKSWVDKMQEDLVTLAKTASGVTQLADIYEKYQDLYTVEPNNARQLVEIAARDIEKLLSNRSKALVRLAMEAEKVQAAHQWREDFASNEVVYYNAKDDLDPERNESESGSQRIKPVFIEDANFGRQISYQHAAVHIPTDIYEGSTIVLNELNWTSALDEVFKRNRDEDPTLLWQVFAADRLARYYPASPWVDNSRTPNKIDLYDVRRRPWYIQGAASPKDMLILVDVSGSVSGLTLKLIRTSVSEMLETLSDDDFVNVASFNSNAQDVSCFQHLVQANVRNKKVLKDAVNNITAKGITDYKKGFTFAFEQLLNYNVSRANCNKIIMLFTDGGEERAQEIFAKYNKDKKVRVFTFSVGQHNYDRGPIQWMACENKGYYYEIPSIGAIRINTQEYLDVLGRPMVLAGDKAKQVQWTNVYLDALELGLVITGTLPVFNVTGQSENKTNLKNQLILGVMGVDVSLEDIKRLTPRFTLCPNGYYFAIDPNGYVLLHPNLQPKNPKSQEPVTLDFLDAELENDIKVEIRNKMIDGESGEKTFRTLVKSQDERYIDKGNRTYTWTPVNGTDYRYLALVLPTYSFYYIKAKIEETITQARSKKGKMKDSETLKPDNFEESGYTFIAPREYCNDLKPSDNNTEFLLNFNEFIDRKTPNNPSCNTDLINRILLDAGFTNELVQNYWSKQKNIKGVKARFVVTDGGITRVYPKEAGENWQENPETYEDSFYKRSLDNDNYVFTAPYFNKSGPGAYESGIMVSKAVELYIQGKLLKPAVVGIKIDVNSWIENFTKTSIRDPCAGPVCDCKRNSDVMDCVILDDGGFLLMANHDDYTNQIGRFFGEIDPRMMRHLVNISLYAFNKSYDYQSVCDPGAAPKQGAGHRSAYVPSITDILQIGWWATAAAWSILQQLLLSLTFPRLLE
T2 sequence (P54290 945-1091 partner limits assumed): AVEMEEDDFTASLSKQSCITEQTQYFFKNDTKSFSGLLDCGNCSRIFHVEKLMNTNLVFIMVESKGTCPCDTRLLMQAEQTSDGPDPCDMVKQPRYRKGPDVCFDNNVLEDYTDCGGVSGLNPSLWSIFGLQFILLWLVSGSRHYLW
T2 sequence (P54287 whole entry partner): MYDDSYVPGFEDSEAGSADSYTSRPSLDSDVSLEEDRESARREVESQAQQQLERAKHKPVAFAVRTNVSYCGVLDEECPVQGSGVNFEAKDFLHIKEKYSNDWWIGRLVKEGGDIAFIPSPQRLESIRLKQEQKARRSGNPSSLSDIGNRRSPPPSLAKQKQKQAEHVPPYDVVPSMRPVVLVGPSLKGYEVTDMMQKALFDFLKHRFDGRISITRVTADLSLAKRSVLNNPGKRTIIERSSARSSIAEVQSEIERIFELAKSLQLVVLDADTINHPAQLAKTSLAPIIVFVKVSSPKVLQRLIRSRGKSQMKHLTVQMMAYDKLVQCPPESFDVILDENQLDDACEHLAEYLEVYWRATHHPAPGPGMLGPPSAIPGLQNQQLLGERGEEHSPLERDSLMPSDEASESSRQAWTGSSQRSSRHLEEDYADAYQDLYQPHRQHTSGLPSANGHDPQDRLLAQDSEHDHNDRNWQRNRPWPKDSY
Method: as §1, §2, §3
After obtaining a whole-cell recording, Ca^2+ channels were elicited by stepping to test potentials between −40 and +20 mV for 120 msec from the holding potential of −90 mV to determine if the amplitude of the current and clamp control were adequate for evaluation of drug effects. Ca^2+ channel currents were evoked by stepping from a holding potentials between −65 mV and −−55 mV to a test potential of +20 mV for 150 msec every 40 seconds. The amplitude of the Ca^2+ channel currents were compared before and during drug application and drug effects expressed as percent inhibition of the amplitude of control currents.

[4] = tested on: Na+ channels in superior cervical ganglion (SCG) neurons; assay: Whole-cell voltage clamp, Na+ current in SCG neurons; type: cell-based, rat; settings: for IC50: read-out: Inhibition of Na+ Current IC50
Method: as §1, §2, §3, §4

Inhibition of Calcium Flux in IMR-32 Cells % Inhibition at 1 μM [2] [%] | Inhibition of Calcium Flux in IMR-32 Cells % Inhibition at 10 μM ([2]; 10 μM) [%] | IC50 [2] [nM] | Inhibition of N-type Ca2+ Current, % Inhibition at 10 μM [3] [%] | IC50 [1] [nM] | IC50 [4] [nM] | inhibition at 1 µM [2] [%] | inhibition at 10 µM [2] [%] | inhibition at 10 µM [3] [%] | IC50 [3] [nM] | Compound | Inhibition of K+ Current, % Inhibition at 10 μM [1] [%] | Inhibition of Na+ Current, % Inhibition at 10 μM [4] [%]
77 | 99 | 270 | 45 |  |  |  |  |  |  | CCCCNC(=S)N[C@@H](CC(C)C)C(=O)N[C@@H](Cc1ccc(OCc2ccccc2)cc1)C(=O)OC(C)(C)C (relative stereo) [Example 49, [S-(R*,R*)]-3-(4-Benzyloxy-phenyl)-2-[2-(3-butyl-thioureido)-4-methyl-pentanoylamino]-propionic acid tert-butyl ester] | −3 | 6
 |  | 2500 | 61 | 5450 | 14000 |  |  |  |  | CC(C)(C)NC(=O)[C@H](Cc1ccc(OCc2ccccc2)cc1)NC(=O)[C@@H]1CC2CCCCC2N1C(=O)N1CCCCCC1 (relative stereo) [Example 161, [S-(R*,R*)]-1-(Azepane-1-carbonyl)-octahydro-indole-2-carboxylic acid [2-(4-benzyloxy-phenyl)-1-tert-butylcarbamoyl-ethyl]-amide] | 68 | 42
55 |  | 820 | 81 |  |  |  |  |  |  | CC(C)C[C@H](NC(=O)N1CCCCCC1)C(=O)N[C@@H](Cc1ccc(OCc2ccccc2)cc1)C(=O)N1CCN(Cc2ccccc2)CC1 (relative stereo) [Example 180, [S-(R*,R*)]-Azepane-1-carboxylic acid {1-[1-(4-benzyloxy-benzyl)-2-(4-benzyl-piperazin-1-yl)-2-oxo-ethylcarbamoyl]-3-methyl-butyl}-amide] | 60 | 20
 |  | 1700 |  |  |  | 38 | 90 | 32 |  | CC(C)C[C@H](NC(=O)N1CCCCCC1)C(=O)N[C@H](Cc1ccc(OCc2ccccc2)cc1)C(=O)OC(C)(C)C [Example 2, 2(R)-{2(S)-[(Azepane-1-carbonyl)-amino]-4-methyl-pentanoylamino}-3-(4-benzyloxy-phenyl)-propionic acid tert-butyl ester] | 41 | 35
 |  | 990 |  |  |  | 53 | 90 | 69 |  | CC(C)C[C@@H](NC(=O)N1CCCCCC1)C(=O)N[C@@H](Cc1ccc(OCc2ccccc2)cc1)C(=O)OC(C)(C)C [Example 3, 2(S)-{2(R)-[(Azepane-1-carbonyl)-amino]-4-methyl-pentanoylamino}-3-(4-benzyloxy-phenyl)-propionic acid tert-butyl ester] | 39 | 12
 |  | 900 |  |  |  | 51 | 90 | 51 |  | CC(C)C[C@@H](NC(=O)N1CCCCCC1)C(=O)N[C@H](Cc1ccc(OCc2ccccc2)cc1)C(=O)OC(C)(C)C [Example 4, [R-(R*,R*)]-2-{2-(Azepane-1-carbonyl)-amino]-4-methyl-pentanoylamino}-3-(4-benzyloxy-phenyl)-propionic acid tert-butyl ester] | 38 | 13
 |  | 530 |  |  |  | 61 | 88 | 47 |  | CC(C)CC(NC(=O)N1CCCCCC1)C(=O)NC(C)(Cc1ccc(OCc2ccccc2)cc1)C(=O)OC(C)(C)C (stereo not drawn) [Example 11A, [S-(R*,R*)]-2-{2-[(Azepane-1-carbonyl)-amino]-4-methyl-pentanoylamino}-3-(4-benzyloxy-phenyl)-2-methyl-propionic acid tert-butyl ester] | 47 | 11
 |  | 630 |  |  |  | 56 | 83 | 38 |  | CC(C)C[C@H](NC(=O)N1CCCCCC1)C(=O)N[C@@H](Cc1ccc(OCC2CCCCC2)cc1)C(=O)OC(C)(C)C [Example 30, [S-(R*,R*)]-2-{2-[(Azepane-1-carbonyl)-amino]-4-methyl-pentanoylamino}-3-(4-cyclohexylmethoxy-phenyl)-propionic acid tert-butyl ester] | 8 | 19
 |  | 1850 |  | 12400 | 185000 | 28 | 85 | 68 | 3340 | CC(C)C[C@H](NC(=O)N1CCCCCC1)C(=O)N[C@@H](Cc1ccc(OCc2cccnc2)cc1)C(=O)OC(C)(C)C [Example 31, [S-(R*,R*)]-2-{2-[(Azepane-1-carbonyl)-amino]-4-methyl-pentanoylamino}-3-[4-(pyridin-3-ylmethoxy)-phenyl]-propionic acid tert-butyl ester] | 41 | 21
 |  | 830 |  |  |  |  |  | 28 |  | CC(C)(C)C[C@H](NC(=O)N1CCCCCC1)C(=O)N[C@@H](Cc1ccc(OCc2ccccc2)cc1)C(=O)NCCN1CCCCC1 [Example 159, [S-(R*,R*)]-Azepane-1-carboxylic acid {1-[2-(4-benzyloxy-phenyl)-1-(2-piperidin-1-ylethylcarbamoyl)-ethylcarbamoyl]-3,3-dimethyl-butyl}-amide] | 46 | 30
 |  | 960 |  |  |  |  |  | 47 |  | O=C(NCCN1CCCCC1)[C@H](Cc1ccc(OCc2ccccc2)cc1)NC(=O)[C@H](CC1CCCCC1)NC(=O)N1CCCCCC1 [Example 162, [S-(R*,R*)]-Azepane-1-carboxylic acid {1-[2-(4-benzyloxy-phenyl)-1-(2-piperidin-1-ylethylcarbamoyl)-ethylcarbamoyl]-2-cyclohexyl-ethyl}-amide] | 40 | 32
 |  | 3600 |  |  | 6900 |  |  | 84 | 2330 | CC(C)C[C@H](NC(=O)N1CCCCCC1)C(=O)N[C@@H](Cc1ccc(OCc2ccccc2)cc1)C(=O)NCCO [Example 165, [S-(R*,R*)]-Azepane-1-carboxylic acid {1-[2-(4-benzyloxy-phenyl)-1-(2-hydroxy-ethylcarbamoyl)-ethylcarbamoyl]-3-methyl-butyl}-amide] | 86 | 46

Compound | Inhibition of Calcium Flux in IMR-32 Cells % Inhibition at 1 μM [2] [%] | Inhibition of Calcium Flux in IMR-32 Cells % Inhibition at 10 μM ([2]; 10 μM) [%] | IC50 [2] [nM] | Inhibition of N-type Ca2+ Current, % Inhibition at 10 μM [3] [%] | IC50 [1] [nM] | IC50 [4] [nM] | inhibition at 1 µM [2] [%] | inhibition at 10 µM [2] [%] | inhibition at 10 µM [3] [%] | IC50 [3] [nM] | Inhibition of K+ Current, % Inhibition at 10 μM [1] [%] | Inhibition of Na+ Current, % Inhibition at 10 μM [4] [%]
CC(C)C[C@H](NC(=O)N1CCCCCC1)C(=O)N[C@@H](Cc1ccc(OCc2cccc(NC(=O)OC(C)(C)C)c2)cc1)C(=O)OC(C)(C)C [Example 28, [S-(R*,R*)]-2-{2-[(Azepane-1-carbonyl)-amino]-4-methyl-pentanoylamino}-3-[4-(3-tert-butoxycarbonylamino-benzyloxy)-phenyl]-propionic acid tert-butyl ester] |  |  | 1800 |  |  |  | 42 | 65 | 40 |  | 11 | 5
